Results published in PubChem BioAssay (NCI).
Where “and” joins values, the source holds several entries; their conditions need not be identical. Equal entries are not always repeated.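 Interpolation was linear, between the two tested concentrations surrounding the appropriate level; five concentrations were tested over 48 hours in 96-well plates. Abbreviation: GI50, concentration required for 50% inhibition of growth. TGI denotes the concentration required for complete inhibition of growth.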

Tests used:
Experiment in all cases: inhibition of tumour cell growth, NCI panel, 48 h
[1] = tested on: 786-0 renal
[2] = tested on: BT-549 breast
[3] = tested on: DU-145 prostate
[4] = tested on: HL-60(TB) leukemia
[5] = tested on: HS 578T breast
[6] = tested on: LOX IMVI melanoma
[7] = tested on: NCI-H522 lung
[8] = tested on: SN12C renal
[9] = tested on: SW-620 colon
[10] = tested on: T-47D breast

| SMILES | GI50 [1] | TGI [1] | GI50 [2] | TGI [2] | GI50 [3] | TGI [3] | GI50 [4] | TGI [4] | GI50 [5] | TGI [5] | GI50 [6] | TGI [6] | GI50 [7] | TGI [7] | GI50 [8] | TGI [8] | GI50 [9] | TGI [9] | GI50 [10] | TGI [10] |
| --- | --- | --- | --- | --- | --- | --- | --- | --- | --- | --- | --- | --- | --- | --- | --- | --- | --- | --- | --- | --- |
| Cc1cc2c(cc1Cl)SC(C(=O)c1ccc(Cl)c(Cl)c1)NS2(=O)=O (stereo not given) | 37.3 µM | 97 µM | 29.8 µM | 56.5 µM | 32.8 µM | 87.6 µM | 39.8 µM | 80.6 µM | 70 µM | > 100 µM | 22.6 µM | 48.7 µM | 28.9 µM | 74.4 µM | 32 µM | 86.4 µM | 27.6 µM | 72.9 µM | 19.9 µM | 49.9 µM |
| N#Cc1ccc(/C=C/C(=O)c2ccccc2)cc1 | 15.9 µM and 14.6 µM | > 52.2 µM and 29.2 µM | 15.2 µM and 16.7 µM | 29.3 µM and 30.5 µM | 13.4 µM and 12.3 µM | 26.2 µM and 24.9 µM | 9.07 µM and 3.2 µM | 48.4 µM and > 33.1 µM | 18.3 µM and 2.13 µM | 50.9 µM and 5.64 µM | 2.41 µM and 3.3 µM | 6.12 µM and 9.23 µM | 10.4 µM and 14.7 µM | 22.4 µM and 31.5 µM | 14.8 µM and 14.2 µM | 28.3 µM and 27.7 µM | 2.72 µM and 1.77 µM | 7.73 µM and 3.45 µM | 11.1 µM and 12.2 µM | 24.7 µM and 27.7 µM |
| CCc1ccc([O-])c(C=NCCCN(C)CCCN=Cc2cc(C)ccc2[O-])c1.[Co+3].[N-]=[N+]=[N-] | 43.1 mg/L | 50 mg/L | 50 mg/L | 50 mg/L | 11.6 mg/L | 50 mg/L | 61 mg/L | > 150 mg/L | 13.8 mg/L | 50 mg/L | 41.3 mg/L | > 150 mg/L | 50 mg/L and > 150 mg/L | 50 mg/L and > 150 mg/L | 50 mg/L and 61.8 mg/L | 50 mg/L and > 150 mg/L | 50 mg/L and > 150 mg/L | 50 mg/L and > 150 mg/L | 40 mg/L | 50 mg/L |
| CC/C(=N/N=C(N)N)c1ccc(NC(=O)Nc2ccc(/C(CC)=N/N=C(N)N)cc2)cc1 | 9.02 µM | 30.9 µM | 3.83 µM | 21.1 µM | 5.02 µM | 30.5 µM | 2.85 µM | 21.8 µM | 22.6 µM | > 100 µM | 9.41 µM | 35 µM | 1.74 µM | 7.03 µM | 3.16 µM | 19.4 µM | 8.29 µM | 55.6 µM | 5.81 µM | 74.1 µM |
| COc1cc(Cn2c(SCC(=O)Nc3ccc(Cl)cc3)nc3ccccc3c2=O)cc(OC)c1OC | 3.37 µM | 12.3 µM | 6.42 µM | 23.8 µM | 18.1 µM | > 100 µM | > 100 µM | > 100 µM | 3.95 µM | 40.3 µM | 13.5 µM | > 100 µM | 4.89 µM | 21.9 µM | 16.9 µM | > 100 µM | 31.8 µM | > 100 µM | 2.16 µM | 8.21 µM |
| COc1ccc(-c2nc3sccn3c2-c2ccnc(NCCCNS(=O)(=O)c3ccc(F)cc3)n2)cc1 | 5.13 µM | > 100 µM | 2.19 µM | 8.27 µM | 3.02 µM | > 100 µM | 2.64 µM | 9.22 µM | 3.22 µM | 9.03 µM | 1.91 µM | 5.82 µM | 1.41 µM | 6.34 µM | 2.74 µM | > 100 µM | 3.87 µM | 44.4 µM | 0.866 µM | 4.87 µM |
| CNc1ncc2cc(-c3cc(NC(=O)NCCC(C)(C)C)c(F)cc3C)c(C)nc2n1 | 0.811 µM and 0.81 µM | > 100 µM | 3.29 µM and 2.49 µM | > 100 µM | 0.535 µM and 0.685 µM | > 100 µM | 0.0668 µM and 0.0811 µM | 17.8 µM and > 10 µM | 0.839 µM and 0.582 µM | 33.5 µM and > 10 µM | 0.102 µM and 0.0573 µM | 2.23 µM and 2 µM | 0.294 µM and 0.333 µM | > 20.9 µM | 0.485 µM and 0.411 µM | > 100 µM | 0.27 µM and 0.256 µM | > 100 µM | 0.819 µM and 1.51 µM | 25.1 µM and > 10 µM |
| COc1cc2c(cc1O)C1CC(CC3CCCCN31)OC(=O)/C=C\c1ccc(O)c-2c1 (stereo not given) |  | > 100 µM |  | 67.5 µM |  | 89.6 µM |  | 58.3 µM |  | 57.5 µM |  | 32.3 µM |  | 65 µM |  | > 100 µM |  | > 100 µM |  | 45.7 µM |
| N=C1/C(=C2\Nc3ccccc3S2)CC(=O)N1c1ccc(SC(F)F)cc1 | 3.23 µM | > 100 µM | > 100 µM | > 100 µM | 77.1 µM | > 100 µM | 5.02 µM | > 100 µM | 2.17 µM | 29.2 µM | 2.21 µM | > 100 µM | 17.3 µM | > 100 µM | > 100 µM | > 100 µM | 5.37 µM | > 100 µM | 27.8 µM | > 100 µM |
| CC12CC(=O)C3C(CCC4=CC(=O)CCC43C)C1CC=C2CC(=O)O (stereo not given) |  | > 100 µM |  | > 100 µM |  | > 100 µM |  | > 100 µM |  | > 100 µM |  | > 100 µM |  | > 100 µM |  | > 100 µM |  | > 100 µM |  | > 100 µM |
| O=C1NC(=O)C(c2c[nH]c3ccccc23)=C1c1ccccc1 | > 25 µM | > 25 µM | > 25 µM | > 25 µM | > 25 µM | > 25 µM | > 25 µM | > 25 µM | > 25 µM | > 25 µM | 23.3 µM | > 25 µM | > 25 µM | > 25 µM | > 25 µM | > 25 µM | > 25 µM | > 25 µM | > 25 µM | > 25 µM |
| O=c1[nH]c(SCc2ccccc2[N+](=O)[O-])nc2nc[nH]c12 |  | > 100 µM |  | > 100 µM |  | > 100 µM |  | > 100 µM |  | > 100 µM |  | > 100 µM |  | > 100 µM |  | > 100 µM |  | > 100 µM |  | > 100 µM |
| O=C1/C(=C/c2ccccc2[N+](=O)[O-])COc2ccc(O)c(O)c21 | 0.805 µM | 4.74 µM | 0.882 µM | 4.02 µM | 0.807 µM | 2.36 µM | 0.745 µM | 8.13 µM | 2.05 µM | 12.6 µM | 0.307 µM | 1.3 µM | 0.208 µM | 0.509 µM | 0.679 µM | 6.05 µM | 0.353 µM | 1.44 µM | 0.918 µM | 4.72 µM |
| Fc1ccc(C2C3CCOc4c(ccc5ccccc45)C3=NN2c2ccccc2)cc1 (stereo not given) | > 100 µM | > 100 µM | > 100 µM | > 100 µM | > 100 µM | > 100 µM | > 100 µM | > 100 µM | > 88.6 µM | > 100 µM | 88.4 µM | > 100 µM | > 100 µM | > 100 µM | > 100 µM | > 100 µM | > 100 µM | > 100 µM | 25.4 µM | > 94.8 µM |
| c1cc2c(c(NC3=NCCN3)c1)CCCC2 |  | > 100 µM |  | > 100 µM |  | > 100 µM |  | > 100 µM |  | > 100 µM |  | > 100 µM |  | > 100 µM |  | > 100 µM |  | > 100 µM |  | > 100 µM |
| C=C1C(=O)C2(C)OC2(C)C1C(=O)O (stereo not given) |  | > 100 µM |  | > 100 µM |  | > 100 µM |  | > 100 µM |  | > 100 µM |  | > 100 µM |  | > 100 µM |  | > 100 µM |  | > 100 µM |  | > 100 µM |
| O=C(c1ccco1)c1c(C(F)(F)F)n([O-])c2ccc(F)cc2[n+]1=O | 1.27 µM | 3.94 µM | 0.996 µM | 2.98 µM | 2.24 µM | 7.04 µM | 0.186 µM | 0.452 µM | 1.84 µM | 7.08 µM | 0.785 µM | 2.24 µM | 1.7 µM | 3.44 µM | 1.33 µM | 3.38 µM | 0.316 µM | 1.16 µM | 0.54 µM | 3.21 µM |
| COc1ccc(/C=C2\CCC(Cc3ccccc3)(CN(C)C)C2=O)cc1 (stereo not given) |  | > 100 µM |  | > 100 µM |  | > 100 µM |  | 55.3 µM |  | > 100 µM |  | 57.5 µM |  | > 71.9 µM |  | > 100 µM |  | > 73.3 µM |  | > 100 µM |
| FC(F)(F)c1ccc(NCc2nc3ccccc3[nH]2)cc1 | 30.7 µM | > 100 µM | 31.1 µM | 97.5 µM | 47.9 µM | > 100 µM | 12.1 µM | 38.5 µM | 23.3 µM | 79 µM | 23.2 µM | > 100 µM | 24.7 µM | 95.3 µM | 29.7 µM | > 100 µM | 35.7 µM | > 100 µM | 26.5 µM | 80.6 µM |
| CS(=O)(=O)N1CCc2c(-c3cnc(N)nc3)nc(N3CCOCC3)nc21 | 0.696 µM and 0.562 µM | > 8.81 µM and 16.5 µM | 0.51 µM and 0.479 µM | 6.08 µM and 6.39 µM | 0.632 µM and 0.503 µM | > 45.9 µM | 0.415 µM | > 100 µM | 0.324 µM and 0.222 µM | 3.3 µM and 1.86 µM | 0.579 µM and 0.406 µM | > 94.2 µM | 0.642 µM and 2.1 µM | > 48.7 µM | 0.648 µM and 0.667 µM | > 100 µM | 1.54 µM and 1.29 µM | > 100 µM | 0.041 µM and 0.0468 µM | 0.399 µM and 0.463 µM |
| COc1cccc(/C=C\c2ccnc3ccccc23)c1 |  | > 10 µM |  | > 10 µM |  | > 10 µM |  | > 10 µM |  | > 10 µM |  | > 10 µM |  | > 10 µM |  | > 10 µM |  | > 10 µM |  | > 10 µM |
